Measurements published in US10570122B2, “Compounds with anti-tumoral activity” (AB Science, priority 2015, dated 2020).

Legend:
OPM2 = experiment: CellTiter-Blue cell-based survival/proliferation assay, OPM2; conditions: Homo sapiens, OPM-2, Myeloma cell line OPM2, 48 h, read-out: Anti-tumoral activity (measured IC50) OPM2
How it was run: (§1)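 Tenfold compound dilutions (0–10 μM) were added to 1·10^4 cells/well. Plates incubated 48 h at 37 °C. CellTiter-Blue reduction (4 h, 37 °C) was read as fluorescence at 590 nm, background-corrected with a cell-free blank.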

BT20 = experiment: CellTiter-Blue cell-based survival/proliferation assay, BT20; conditions: Homo sapiens, BT-20; BT20 breast tumor cell line, 48 h
How it was run: as §1

HGC27 = experiment: CellTiter-Blue cell-based survival/proliferation assay, HGC27; conditions: Homo sapiens, HGC-27; HGC27 stomach tumor cell line, 48 h
How it was run: as §1

KARPAS299 = experiment: CellTiter-Blue cell-based survival/proliferation assay, KARPAS299; conditions: Homo sapiens, KARPAS-299, Lymphoma cell line KARPAS299, 48 h, read-out: Anti-tumoral activity (measured IC50) KARPAS299
Procedure: (§2) Cell-Based Proliferation Screening of Compounds
(§3) CellTiter-Blue cell-based survival/proliferation assay (Promega G8080) was performed on tumor cell lines. A total of 1·10^4 cells/well/50 μl were seeded in a 96-wells plate. Treatment was initiated by addition of a 2× drug solution of 1/10 serial dilutions ranging from 0 to 10 μM. Cells were grown for 48 h at 37° C. and then incubated with 10 μl/well of Promega CellTiter-Bleue reagent for 4 h at 37° C. The amount of resorufin dye formed was quantified by its fluorescence emission at 590 nm using a scanning multiwell spectrophotometer (OPTIMA, BMG labtech, France). A blank well without cells was used as a background control for the spectrophotometer.

A549 = experiment: CellTiter-Blue cell-based survival/proliferation assay, A549; conditions: Homo sapiens; A549 lung tumor cell line, 48 h
How it was run: as §1

H1299 = experiment: CellTiter-Blue cell-based survival/proliferation assay, H1299; conditions: Homo sapiens, NCI-H1299; H1299 lung tumor cell line, 48 h
How it was run: as §1

A498 = experiment: CellTiter-Blue cell-based survival/proliferation assay, A498; conditions: Homo sapiens; A498 kidney tumor cell line, 48 h
How it was run: as §1

PANC1 = experiment: CellTiter-Blue cell-based survival/proliferation assay, PANC1; conditions: Homo sapiens, PANC-1; PANC_1 pancreas tumor cell line, 48 h
How it was run: as §1

HEPG2 = experiment: CellTiter-Blue cell-based survival/proliferation assay, HEPG2; conditions: Homo sapiens; HEPG2 liver tumor cell line, 48 h
How it was run: as §1

TOV112D = experiment: CellTiter-Blue cell-based survival/proliferation assay, TOV112D; conditions: Homo sapiens; TOV112D ovary tumor cell line, 48 h
How it was run: as §1

BXPC3 = experiment: CellTiter-Blue cell-based survival/proliferation assay, BXPC3; conditions: Homo sapiens, BXPC-3; BXPC3 pancreas tumor cell line, 48 h
How it was run: as §1

AGS = experiment: CellTiter-Blue cell-based survival/proliferation assay, AGS; conditions: Homo sapiens; AGS stomach tumor cell line, 48 h
How it was run: as §1

REC1 = experiment: CellTiter-Blue cell-based survival/proliferation assay, REC1; conditions: Homo sapiens, Lymphoma cell line REC1, 48 h, read-out: Anti-tumoral activity (measured IC50) REC1
Procedure: as §2, §3

HCT116 = experiment: CellTiter-Blue cell-based survival/proliferation assay, HCT116; conditions: Homo sapiens, HCT-116; HCT116 colorectal tumor cell line, 48 h
How it was run: as §1

PC3 = experiment: CellTiter-Blue cell-based survival/proliferation assay, PC3; conditions: Homo sapiens, PC-3; PC3 prostate tumor cell line, 48 h
How it was run: as §1

PLCPRF5 = experiment: CellTiter-Blue cell-based survival/proliferation assay, PLCPRF5; conditions: Homo sapiens, PLC-PRF-5; PLC_PRF5 liver tumor cell line, 48 h
How it was run: as §1

DLD1 = experiment: CellTiter-Blue cell-based survival/proliferation assay, DLD1; conditions: Homo sapiens, DLD-1; DLD_1 colorectal tumor cell line, 48 h
How it was run: as §1

HUT78 = experiment: CellTiter-Blue cell-based survival/proliferation assay, HUT78; conditions: Homo sapiens, Lymphoma cell line HUT78, 48 h, read-out: Anti-tumoral activity (measured IC50) HUT78
Procedure: as §2, §3

HL60 = experiment: CellTiter-Blue cell-based survival/proliferation assay, HL60; conditions: Homo sapiens, HL-60, Leukemia cell line HL60, 48 h, read-out: Anti-tumoral activity (measured IC50) HL60
How it was run: as §1

CALU6 = experiment: CellTiter-Blue cell-based survival/proliferation assay, CALU6; conditions: Homo sapiens, Calu-6; CALU6 lung tumor cell line, 48 h
How it was run: as §1

DU145 = experiment: CellTiter-Blue cell-based survival/proliferation assay, DU145; conditions: Homo sapiens, DU-145; DU145 prostate tumor cell line, 48 h
How it was run: as §1

HEP2 = experiment: CellTiter-Blue cell-based survival/proliferation assay, HEP2; conditions: Homo sapiens, HEp-2; HEP2 head & neck tumor cell line, 48 h
How it was run: as §1

[1] = system: panel of about 34 human tumor cell lines; experiment: Cell-based proliferation screening on panel of tumor cell lines; conditions: solid tumor cell line, cell line unknown, 48 h, read-out: IC50, solid tumor cell line of column 6 (last section of Table 3)
How it was run: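 CellTiter-Blue survival assay with 1·10^4 cells/well, each line treated 48 h at 37° C with 1/10 serial dilutions from 0 to 10 μM. Resorufin formed during a 4 h reagent incubation is read by fluorescence at 590 nm. A cell-free blank serves as background.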

SW579 = experiment: CellTiter-Blue cell-based survival/proliferation assay, SW579; conditions: Homo sapiens; SW579 head & neck tumor cell line, 48 h
How it was run: as §1

ACHN = experiment: CellTiter-Blue cell-based survival/proliferation assay, ACHN; conditions: Homo sapiens; ACHN kidney tumor cell line, 48 h
How it was run: as §1

MDAMB231 = experiment: CellTiter-Blue cell-based survival/proliferation assay, MDAMB231; conditions: Homo sapiens, MDA-MB-231; MDAMB231 breast tumor cell line, 48 h
How it was run: as §1

CLS354 = experiment: CellTiter-Blue cell-based survival/proliferation assay, CLS354; conditions: Homo sapiens, CLS-354; CLS354_4 head & neck tumor cell line, 48 h
How it was run: as §1

MESSA = experiment: CellTiter-Blue cell-based survival/proliferation assay, MESSA; conditions: Homo sapiens, MES-SA; MESSA ovary tumor cell line, 48 h
How it was run: as §1

Compound | IC50 (OPM2) [nM] | IC50 (BT20) [nM] | IC50 (HGC27) [nM] | IC50 (KARPAS299) [nM] | IC50 (A549) [nM] | IC50 (H1299) [nM] | IC50 (A498) [nM] | IC50 (PANC1) [nM] | IC50 (HEPG2) [nM] | IC50 (TOV112D) [nM] | IC50 (BXPC3) [nM] | IC50 (AGS) [nM] | IC50 (REC1) [nM] | IC50 (HCT116) [nM] | IC50 (PC3) [nM] | IC50 (PLCPRF5) [nM] | IC50 (DLD1) [nM] | IC50 (HUT78) [nM] | IC50 (HL60) [nM] | IC50 (CALU6) [nM] | also measured
Cc1ccc(COCCO)cc1Nc1ncc(-c2ccc(-n3cccn3)cc2)o1 [Example 026, 2-{4-Methyl-3-[5-(4-pyrazol-1-yl-phenyl)-oxazol-2-ylamino]-benzyloxy}-ethanol] | > 1000 | > 1000 | > 1000 | > 1000 | > 1000 | > 1000 | > 1000 | > 1000 | > 1000 | > 1000 | > 1000 | > 1000 | > 1000 | > 1000 | > 1000 | > 1000 | > 1000 | > 1000 | > 1000 | > 1000 | IC50 (DU145): > 1000 nM; IC50 (HEP2): > 1000 nM; IC50 [1]: > 1000 nM; IC50 (SW579): > 1000 nM; IC50 (ACHN): > 1000 nM; IC50 (MDAMB231): > 1000 nM; IC50 (CLS354): > 1000 nM; IC50 (MESSA): > 1000 nM
Cc1ccc(CO)cc1Nc1ncc(-c2ccc(-n3cccn3)cc2)o1 [Example 027, {4-Methyl-3-[5-(4-pyrazol-1-yl-phenyl)-oxazol-2-ylamino]-phenyl}-methanol] | > 1000 | > 1000 | > 1000 | > 1000 | > 1000 | > 1000 | > 1000 | > 1000 | > 1000 | > 1000 | > 1000 | > 1000 | > 1000 | > 1000 | > 1000 | > 1000 | > 1000 | > 1000 | > 1000 | > 1000 | IC50 (DU145): > 1000 nM; IC50 (HEP2): > 1000 nM; IC50 [1]: > 1000 nM; IC50 (SW579): > 1000 nM; IC50 (ACHN): > 1000 nM; IC50 (MDAMB231): > 1000 nM; IC50 (CLS354): > 1000 nM; IC50 (MESSA): > 1000 nM
Cc1ccc(OCCN2CCOCC2)cc1Nc1ncc(-c2ccc(-n3cccn3)cc2)o1 [Example 029, [2-Methyl-5-(2-morpholin-4-yl-ethoxy)-phenyl]-[5-(4-pyrazol-1-yl-phenyl)-oxazol-2-yl]-amine] | > 1000 | > 1000 | > 1000 | > 1000 | > 1000 | > 1000 | > 1000 | > 1000 | > 1000 | > 1000 | > 1000 | > 1000 | > 1000 | > 1000 | > 1000 | > 1000 | > 1000 | > 1000 | > 1000 | > 1000 | IC50 (DU145): > 1000 nM; IC50 (HEP2): > 1000 nM; IC50 [1]: > 1000 nM; IC50 (SW579): > 1000 nM; IC50 (ACHN): > 1000 nM; IC50 (MDAMB231): > 1000 nM; IC50 (CLS354): > 1000 nM; IC50 (MESSA): > 1000 nM
Cc1ccc(OCCN(C)C)cc1Nc1ncc(-c2ccc(-n3cccn3)cc2)o1 [Example 030, [5-(2-Dimethylamino-ethoxy)-2-methyl-phenyl]-[5-(4-pyrazol-1-yl-phenyl)-oxazol-2-yl]-amine] | > 1000 | > 1000 | > 1000 | > 1000 | > 1000 | > 1000 | > 1000 | > 1000 | > 1000 | > 1000 | > 1000 | > 1000 | > 1000 | > 1000 | > 1000 | > 1000 | > 1000 | > 1000 | > 1000 | > 1000 | IC50 (DU145): > 1000 nM; IC50 (HEP2): > 1000 nM; IC50 [1]: > 1000 nM; IC50 (SW579): > 1000 nM; IC50 (ACHN): > 1000 nM; IC50 (MDAMB231): > 1000 nM; IC50 (CLS354): > 1000 nM; IC50 (MESSA): > 1000 nM
CNC(=O)c1ccc(C)c(Nc2ncc(-c3ccc(-n4cccn4)cc3)o2)c1 [Example 031, 4,N-Dimethyl-3-[5-(4-pyrazol-1-yl-phenyl)-oxazol-2-ylamino]-benzamide] | > 1000 | > 1000 | > 1000 | 100 to 500 | > 1000 | > 1000 | > 1000 | > 1000 | > 1000 | > 1000 | > 1000 | > 1000 | > 1000 | > 1000 | > 1000 | > 1000 | > 1000 | > 1000 | > 1000 | > 1000 | IC50 (DU145): > 1000 nM; IC50 (HEP2): > 1000 nM; IC50 [1]: > 1000 nM; IC50 (SW579): > 1000 nM; IC50 (ACHN): > 1000 nM; IC50 (MDAMB231): > 1000 nM; IC50 (CLS354): > 1000 nM; IC50 (MESSA): > 1000 nM
Cc1ccc(C(=O)NCCN2CCN(C)CC2)cc1Nc1ncc(-c2ccc(-n3cccn3)cc2)o1 [Example 032, 4-Methyl-N-[2-(4-methyl-piperazin-1-yl)-ethyl]-3-[5-(4-pyrazol-1-yl-phenyl)-oxazol-2-ylamino]-benzamide] | > 1000 | > 1000 | > 1000 | > 1000 | > 1000 | > 1000 | > 1000 | > 1000 | > 1000 | > 1000 | > 1000 | > 1000 | > 1000 | > 1000 | > 1000 | > 1000 | > 1000 | > 1000 | > 1000 | > 1000 | IC50 (DU145): > 1000 nM; IC50 (HEP2): > 1000 nM; IC50 [1]: > 1000 nM; IC50 (SW579): > 1000 nM; IC50 (ACHN): > 1000 nM; IC50 (MDAMB231): > 1000 nM; IC50 (CLS354): > 1000 nM; IC50 (MESSA): > 1000 nM
CCOCc1ccc(C)c(Nc2ncc(-c3ccc(-n4cncn4)cc3)o2)c1 [Example 034, (5-Ethoxymethyl-2-methyl-phenyl)-[5-(4-[1,2,4]triazol-1-yl-phenyl)-oxazol-2-yl]-amine] | > 1000 | > 1000 | > 1000 | 100 to 500 | > 1000 | > 1000 | > 1000 | > 1000 | > 1000 | 500 to 1000 | > 1000 | > 1000 | 100 to 500 | > 1000 | > 1000 | > 1000 | > 1000 | 100 to 500 | > 1000 | > 1000 | IC50 (DU145): > 1000 nM; IC50 (HEP2): 500 to 1000 nM; IC50 [1]: > 1000 nM; IC50 (SW579): > 1000 nM; IC50 (ACHN): > 1000 nM; IC50 (MDAMB231): > 1000 nM; IC50 (CLS354): 500 to 1000 nM; IC50 (MESSA): > 1000 nM
